Laboratory results from PubChem BioAssay (NCI).
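1) Cells in 96-well plates. 2) Compound, 48 h, 5 concentrations. 3) Linear interpolation between surrounding doses. 4) Unreached endpoint = highest concentration. Here, GI50 denotes the concentration required for 50% inhibition of growth. At the TGI there is no net growth.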

Tests used:
Assay in all cases: NCI tumour cell line growth inhibition, 48 h
SF-295 CNS = system: SF-295 CNS
786-0 renal = system: 786-0 renal
SK-OV-3 ovarian = system: SK-OV-3 ovarian
SK-MEL-5 melanoma = system: SK-MEL-5 melanoma
ACHN renal = system: ACHN renal
SK-MEL-2 melanoma = system: SK-MEL-2 melanoma
SNB-75 CNS = system: SNB-75 CNS
SN12C renal = system: SN12C renal
RXF 393 renal = system: RXF 393 renal
EKVX NSCLC = system: EKVX NSCLC

## O=[N+]([O-])c1ccc(Sc2c3ccccc3nc3ccccc23)cn1
SF-295 CNS
  TGI: > 100 µM
786-0 renal
  TGI: 8.48 µM
SK-OV-3 ovarian
  TGI: > 93 µM
SK-MEL-5 melanoma
  TGI: > 100 µM
ACHN renal
  TGI: 17.4 µM
SK-MEL-2 melanoma
  TGI: 48.1 µM
SNB-75 CNS
  TGI: > 63.4 µM
SN12C renal
  TGI: 43.2 µM
RXF 393 renal
  TGI: 60.3 µM
EKVX NSCLC
  TGI: > 86.2 µM

## CC(=O)NC1CONC1=O (centres undefined)
SF-295 CNS
  TGI: > 100 µM
786-0 renal
  TGI: > 100 µM
SK-OV-3 ovarian
  TGI: > 100 µM
SK-MEL-5 melanoma
  TGI: > 100 µM
ACHN renal
  TGI: > 100 µM
SK-MEL-2 melanoma
  TGI: > 100 µM
SNB-75 CNS
  TGI: > 100 µM
SN12C renal
  TGI: > 100 µM
RXF 393 renal
  TGI: > 100 µM
EKVX NSCLC
  TGI: > 100 µM

## C=C(C)[C@@H]1CC[C@]2(C)[C@H](CC[C@@H]3[C@@H]([C@@](C)(O)CCC=C(C)C)CC[C@]32C)[C@@]1(C)CCC(=O)O
SF-295 CNS
  GI50: 17.7 µM
  TGI: 32.2 µM
786-0 renal
  GI50: 18.7 µM
  TGI: 36.7 µM
SK-OV-3 ovarian
  GI50: 32.9 µM
  TGI: > 100 µM
SK-MEL-5 melanoma
  GI50: 15.2 µM
  TGI: 29 µM
ACHN renal
  GI50: 21.7 µM
  TGI: 54.3 µM
SK-MEL-2 melanoma
  GI50: 17.6 µM
  TGI: 39 µM
SNB-75 CNS
  GI50: 15.3 µM
  TGI: 34.8 µM
SN12C renal
  GI50: 17.2 µM
  TGI: 40.5 µM
RXF 393 renal
  GI50: 14.3 µM
  TGI: 28.6 µM
EKVX NSCLC
  GI50: 24.2 µM
  TGI: 59.6 µM

## COc1cc(/C=C/C(=O)Oc2ccccc2)ccc1C(=O)O/C=C/c1ccccc1
SF-295 CNS
  TGI: > 100 µM
786-0 renal
  TGI: > 100 µM
SK-OV-3 ovarian
  TGI: > 100 µM
SK-MEL-5 melanoma
  TGI: > 100 µM
ACHN renal
  TGI: > 100 µM
SK-MEL-2 melanoma
  TGI: > 100 µM
SNB-75 CNS
  TGI: > 100 µM
SN12C renal
  TGI: > 100 µM
RXF 393 renal
  TGI: > 100 µM
EKVX NSCLC
  TGI: > 100 µM

## COc1cc2c3c(n(CCCN(CCO)CCO)c(=O)c2cc1OC)-c1cc2c(cc1C3=O)OCO2
SF-295 CNS
  GI50: < 0.01 µM
  TGI: 0.288 µM
786-0 renal
  GI50: < 0.01 µM
  TGI: 0.0646 µM
SK-OV-3 ovarian
  GI50: 2.22 µM
  TGI: 34.9 µM
SK-MEL-5 melanoma
  GI50: < 0.0159 µM
  TGI: 0.413 µM
ACHN renal
  GI50: < 0.01 µM
  TGI: 0.0855 µM
SK-MEL-2 melanoma
  GI50: 8.79 µM
  TGI: > 33 µM
SNB-75 CNS
  GI50: 0.0811 µM
  TGI: 2.19 µM
SN12C renal
  GI50: < 0.01 µM
  TGI: 0.285 µM
RXF 393 renal
  GI50: 4.46 µM
  TGI: > 100 µM
EKVX NSCLC
  GI50: 0.887 µM
  TGI: 13.6 µM

## CCOC(=O)C1=C(N)Oc2c(sc3c(C)cccc23)C1c1ccc(F)cc1 (centres undefined)
SF-295 CNS
  GI50: 0.297 µM
  TGI: 2.41 µM
786-0 renal
  GI50: 1.25 µM
  TGI: 17.9 µM
SK-OV-3 ovarian
  GI50: 11.5 µM
  TGI: 32.3 µM
SK-MEL-5 melanoma
  GI50: 1.18 µM
  TGI: 8.49 µM
ACHN renal
  GI50: 0.692 µM
  TGI: 15.9 µM
SK-MEL-2 melanoma
  GI50: 5.39 µM
  TGI: 24.8 µM
SNB-75 CNS
  GI50: 0.265 µM
  TGI: 11.7 µM
SN12C renal
  GI50: 1.11 µM
  TGI: 14.5 µM
RXF 393 renal
  GI50: 0.242 µM
  TGI: 0.639 µM
EKVX NSCLC
  GI50: 0.88 µM
  TGI: 19.7 µM

## C[P+](C)(C)c1ccccc1
SF-295 CNS
  TGI: > 100 µM
786-0 renal
  TGI: > 100 µM
SK-OV-3 ovarian
  TGI: > 100 µM
SK-MEL-5 melanoma
  TGI: > 100 µM
ACHN renal
  TGI: > 100 µM
SK-MEL-2 melanoma
  TGI: > 100 µM
SNB-75 CNS
  TGI: > 100 µM
SN12C renal
  TGI: > 100 µM
RXF 393 renal
  TGI: > 100 µM
EKVX NSCLC
  TGI: > 100 µM

## CC(C)(C)c1cc(C(=O)/C=C/c2ccc(C(=O)O)cc2)cc(C(C)(C)C)c1
SF-295 CNS
  TGI: 7.29 µM
786-0 renal
  TGI: 13.9 µM
SK-OV-3 ovarian
  TGI: 12.5 µM
SK-MEL-5 melanoma
  TGI: 14.7 µM
ACHN renal
  TGI: 15.5 µM
SK-MEL-2 melanoma
  TGI: 12.7 µM
SNB-75 CNS
  TGI: 15 µM
SN12C renal
  TGI: 6.6 µM
RXF 393 renal
  TGI: 4.34 µM
EKVX NSCLC
  TGI: 16.9 µM

## NC(N)=N/N=C(\N=Nc1ccccc1)c1ccc(Cl)cc1
SF-295 CNS
  GI50: 1.82 µM
  TGI: 6.39 µM
786-0 renal
  GI50: 2.03 µM
  TGI: 8.36 µM
SK-OV-3 ovarian
  GI50: 3.44 µM
  TGI: 9.63 µM
SK-MEL-5 melanoma
  GI50: 3.73 µM
  TGI: 14.8 µM
ACHN renal
  GI50: 2.51 µM
  TGI: 8.06 µM
SK-MEL-2 melanoma
  GI50: 3.79 µM
  TGI: 13.1 µM
SNB-75 CNS
  GI50: 4.67 µM
  TGI: 17.8 µM
SN12C renal
  GI50: 4.65 µM
  TGI: 22.1 µM
RXF 393 renal
  GI50: 2.69 µM
  TGI: 9.33 µM
EKVX NSCLC
  GI50: 2.55 µM
  TGI: 13.5 µM

## O=C1c2ccc3c4ccccc4n(-c4ccccc4)c3c2C(=O)N1c1ccc(Cl)cc1
SF-295 CNS
  TGI: > 100 µM
786-0 renal
  TGI: > 100 µM
SK-OV-3 ovarian
  TGI: > 100 µM
SK-MEL-5 melanoma
  TGI: > 100 µM
ACHN renal
  TGI: > 100 µM
SK-MEL-2 melanoma
  TGI: > 100 µM
SNB-75 CNS
  TGI: > 100 µM
SN12C renal
  TGI: > 100 µM
RXF 393 renal
  TGI: > 100 µM
EKVX NSCLC
  TGI: > 100 µM

## NCCCn1c2c(c3ccccc3c1=O)C(=O)c1ccccc1-2
SF-295 CNS
  GI50: 0.0709 µM
  TGI: 0.55 µM
786-0 renal
  GI50: 0.119 µM
  TGI: 1.01 µM
SK-OV-3 ovarian
  GI50: 0.133 µM
  TGI: 1.94 µM
SK-MEL-5 melanoma
  GI50: 0.105 µM
  TGI: 0.948 µM
ACHN renal
  GI50: < 0.0359 µM
SK-MEL-2 melanoma
  GI50: 4.31 µM
  TGI: 12.5 µM
SNB-75 CNS
  GI50: 0.539 µM
  TGI: 3.71 µM
SN12C renal
  GI50: 0.0791 µM
  TGI: 0.465 µM
RXF 393 renal
  GI50: 1.22 µM
  TGI: 6.68 µM
EKVX NSCLC
  GI50: 0.539 µM
  TGI: 2.9 µM

## COc1cc(OC)c2sc(-c3ccc(-n4cncc4-c4cc(OC)c(OC)c(OC)c4)cc3)nc2c1
SF-295 CNS
  GI50: 4.42 µM
  TGI: > 100 µM
786-0 renal
  GI50: 7.38 µM
  TGI: > 100 µM
SK-OV-3 ovarian
  GI50: > 100 µM
  TGI: > 100 µM
SK-MEL-5 melanoma
  GI50: 2.46 µM
  TGI: > 100 µM
ACHN renal
  GI50: 6.67 µM
  TGI: > 100 µM
SK-MEL-2 melanoma
  GI50: 6.09 µM
  TGI: > 100 µM
SNB-75 CNS
  GI50: 6.47 µM
  TGI: > 100 µM
SN12C renal
  GI50: > 100 µM
  TGI: > 100 µM
RXF 393 renal
  GI50: 2.8 µM
  TGI: > 100 µM
EKVX NSCLC
  GI50: 5.09 µM
  TGI: > 100 µM

## O=C1CC2CCN(C(=O)c3ccccc3)CC2CCN1 (centres undefined)
SF-295 CNS
  TGI: > 100 µM
786-0 renal
  TGI: > 100 µM
SK-OV-3 ovarian
  TGI: > 100 µM
SK-MEL-5 melanoma
  TGI: > 100 µM
ACHN renal
  TGI: > 100 µM
SK-MEL-2 melanoma
  TGI: 60.2 µM
SNB-75 CNS
  TGI: > 100 µM
SN12C renal
  TGI: > 100 µM
RXF 393 renal
  TGI: > 100 µM
EKVX NSCLC
  TGI: > 100 µM
